What all share (type): biochemical
One experiment deals with T1, GST-VEGFR2 (Homo sapiens, UniProt P35968).
T1 construct: GST-VEGFR2, baculovirus expressed recombinant constructs of the intracellular domains; made in house
Description: VEGF-R2 Enzyme Assay (VEGF-E2), LANCE method. The following applies: for IC50: read-out: VEGFR2 PIC50 VEGFR-E2 assay. (In general: In TR-FRET formats the signal depends on donor and acceptor labels being close together.)

Experiment [1] has as its target T2, GST-TIE2 (intracellular domains of human TIE2) (Homo sapiens, UniProt Q02763).
T2 construct: made in house
Description: TIE-2 Enzyme Assay (TIE2-E2), LANCE method. The settings on record: for IC50: read-out: TIE2 PIC50 TIE2-E2 assay. The source says:
TIE-2 Enzyme Assay (TIE2-E2
The TIE-2 enzyme assay uses the LANCE method (Wallac) and GST-TIE2, baculovirus-expressed recombinant constructs of the intracellular domains of human TIE2 (amino acids 762–1104, GenBank Accession # L06139) tagged by GST). The method measures the ability of the purified enzymes to catalyse the transfer of the γ-phosphate from ATP onto tyrosine residues in a biotinylated synthetic peptide, D1–15 (biotin-C6-LEARLVAYEGWVAGKKKamide). This peptide phosphorylation is detected using the following procedure: for enzyme preactivation, GST-TIE2 is incubated for 2 hours at room temperature with 80 μM ATP, 10 mM MgCl2, 0.1 mg/ml BSA, 0.01% Tween 20 and 1 mM DTT in 100 mM HEPES buffer (pH7.4). 5 nM preactivated GST-TIE2 is incubated for 2 hours at room temperature in 96 well plates with 1 uM D1–15 peptide, 80 uM ATP, 10 mM MgCl2, 0.1 mg/ml BSA, 0.01% Tween 20 and titrated test compound (diluted from a 10 mM stock in DMSO, final DMSO concentration is 2.4%) in 100 mM HEPES (pH7.4). The reaction is stopped by the addition of EDTA (final concentration 45 mM). Streptavidin linked-APC (allophycocyanin, PerkinElmer) and europium-labeled anti-phosphotyrosine antibody (PerkinElmer) are then added at the final concentration of 8 nM and 1 nM, respectively. The APC signal is measured using an Wallac Multilabel 1420 counter. (Wallac Berthold Japan). The percent inhibition of activity is calculated relative to blank control wells. The concentration of test compound that inhibits 50% of activity (IC50) is interpolated using nonlinear regression (Levernberg-Marquardt) and the equation, y=Vmax (1−x/(K+x))+Y2, where “K” is equal to the IC50. The IC50 values are converted to pIC50 values, i.e., −log IC50 in Molar concentration.

For experiment [2], the target named is T3, catalytic domain of human VEGFR3 (Homo sapiens, UniProt P35916, H890Q).
T3 construct: made in house; host or cells: Sf9 insect cells (baculovirus, pFastBac1)
As to the kind of experiment: VEGFR-3 Homogenous Time-Resolved Fluorescence Assay (VEGFR-3-HTRF). The settings on record: for IC50: read-out: VEGFR3 PIC50 VEGFR-3-HTRF assay. From the text: VEGFR—3-Homogenous Time-Resolved Fluorescence Assay (VEGFR-3-HTRF)
This assay assesses Vascular Endothelial Growth Factor 3 (VEGFR3) tyrosine kinase inhibitory activity in substrate phosphorylation assays. The assay examines the ability of small molecule organic compounds to inhibit the tyrosine phosphorylation of a peptide substrate.
The substrate phosphorylation assays use the VEGFR3 catalytic domain, which is expressed in Sf. 9 insect cells as an amino-terminal GST-tagged fusion protein. The catalytic domain of human VEGFR3 (AA residues #819–1298 based upon GenBank Accession #XM003852) is cloned by PCR from human Placenta Marathon Ready cDNA (Clontech). The PCR product is subcloned into pFastBac1 vector containing an N-terminal GST tag. The resulting pFB/GST/VEGFR3icd vector is used to generate a recombinant baculovirus for protein expression. The VEGFR3 catalytic domain translated sequence is:
Autophosphorylation allows enzymes to be fully activated prior to addition to peptide substrates. The assays are performed using enzyme that has been activated by autophosphorylation via preincubation in buffer with ATP and magnesium. Activated enzyme is then diluted and added to titrated compound and the substrate mix.
200 nM VEGFR3 enzyme is activated for 45 minutes at room temperature by incubating the enzyme in buffer containing 100 mM HEPES (pH7.2), 75 μM ATP, 0.3 mM DTT, 0.1 mg/mL BSA, and 10 mM MgCl2. After activation, VEGFR3 is diluted 100-fold into 2× dilution buffer: 200 mM HEPES (pH 7.5), 0.2 mg/mL BSA, 0.6 mM DTT. 20 μL of the diluted enzyme mix is added to 20 μL of 2× substrate mix (150 μM ATP, 20 mM MgCl2, 0.72 μM biotinylated peptide) in the assay plates. Final assay conditions are: 100 mM HEPES (pH 7.2), 75 μM ATP, 10 mM MgCl2, 0.1 mg/mL BSA, 0.3 mM DTT, 0.36 μM biotinylated peptide, and 1 nM VEGFR3 enzyme. Assay plates are incubated for 1.5 hours at room temperature before the addition of 30 μL 100 mM EDTA to the wells to stop the enzymatic reaction. 40 μL/well of HTRF mix are then added to the assay plates for the detection of phosphorylated substrate. Final assay concentrations are: 100 mM HEPES (pH7.2), 0.1 mg/mL BSA, 15 nM streptavidin-labeled allophycocyanin (PerkinElmer), and 1 nM europium-labeled anti-phosphotyrosine antibody (PerkinElmer). Assay plates are left unsealed and are counted in a Wallac Multilabel Counter 1420 (PerkinElmer).
The data for dose responses are plotted as % Control calculated with the data reduction formula 100*(U1–C2)/(C1–C2) versus concentration of compound where U is the unknown value, C1 is the average control value obtained for DMSO , and C2 is the average control value obtained for 0.1M EDTA. Data are fitted to the curve described by: y=((Vmax*x)/(K+x)) where Vmax is the upper asymptote and K is the IC50.

T1 sequence (P35968 786-1356 limits assumed): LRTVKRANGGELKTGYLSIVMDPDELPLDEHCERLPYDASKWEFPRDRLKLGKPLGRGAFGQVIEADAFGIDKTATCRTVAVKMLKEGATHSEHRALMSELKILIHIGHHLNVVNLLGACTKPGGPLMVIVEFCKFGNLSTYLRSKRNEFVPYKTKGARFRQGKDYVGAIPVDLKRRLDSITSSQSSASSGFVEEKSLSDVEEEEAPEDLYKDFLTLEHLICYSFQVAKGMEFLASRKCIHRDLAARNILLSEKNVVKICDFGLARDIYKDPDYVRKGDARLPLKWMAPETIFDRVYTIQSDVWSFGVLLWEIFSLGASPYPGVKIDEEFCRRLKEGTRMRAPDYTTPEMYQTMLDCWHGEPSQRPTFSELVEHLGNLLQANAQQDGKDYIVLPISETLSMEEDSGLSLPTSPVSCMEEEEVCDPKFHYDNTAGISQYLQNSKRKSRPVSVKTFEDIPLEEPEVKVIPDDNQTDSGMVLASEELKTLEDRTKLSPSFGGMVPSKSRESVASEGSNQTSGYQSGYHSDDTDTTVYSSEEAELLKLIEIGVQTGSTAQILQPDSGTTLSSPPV
T3 sequence (P35916 with tags, fused parts or gaps isoform P35916-1 H890Q): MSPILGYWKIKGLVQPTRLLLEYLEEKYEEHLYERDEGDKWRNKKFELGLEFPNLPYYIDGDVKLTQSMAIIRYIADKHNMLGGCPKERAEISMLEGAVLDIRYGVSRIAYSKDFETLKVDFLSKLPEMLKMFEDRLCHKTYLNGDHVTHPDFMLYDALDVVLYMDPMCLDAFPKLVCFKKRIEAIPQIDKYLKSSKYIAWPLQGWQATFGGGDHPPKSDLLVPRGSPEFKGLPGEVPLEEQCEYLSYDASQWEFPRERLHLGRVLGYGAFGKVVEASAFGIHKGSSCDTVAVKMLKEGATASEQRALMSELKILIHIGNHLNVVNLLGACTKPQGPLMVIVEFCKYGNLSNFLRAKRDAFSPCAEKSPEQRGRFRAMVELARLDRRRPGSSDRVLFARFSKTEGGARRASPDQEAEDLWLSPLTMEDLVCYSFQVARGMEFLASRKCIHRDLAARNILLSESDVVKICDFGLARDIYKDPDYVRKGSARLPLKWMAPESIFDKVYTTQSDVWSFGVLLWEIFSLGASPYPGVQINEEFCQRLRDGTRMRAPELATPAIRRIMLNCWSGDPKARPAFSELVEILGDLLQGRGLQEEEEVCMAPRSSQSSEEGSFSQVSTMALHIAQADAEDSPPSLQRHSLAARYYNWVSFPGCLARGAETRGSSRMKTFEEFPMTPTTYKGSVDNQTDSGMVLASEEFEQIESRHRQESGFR
T2 sequence (Q02763 762-1104): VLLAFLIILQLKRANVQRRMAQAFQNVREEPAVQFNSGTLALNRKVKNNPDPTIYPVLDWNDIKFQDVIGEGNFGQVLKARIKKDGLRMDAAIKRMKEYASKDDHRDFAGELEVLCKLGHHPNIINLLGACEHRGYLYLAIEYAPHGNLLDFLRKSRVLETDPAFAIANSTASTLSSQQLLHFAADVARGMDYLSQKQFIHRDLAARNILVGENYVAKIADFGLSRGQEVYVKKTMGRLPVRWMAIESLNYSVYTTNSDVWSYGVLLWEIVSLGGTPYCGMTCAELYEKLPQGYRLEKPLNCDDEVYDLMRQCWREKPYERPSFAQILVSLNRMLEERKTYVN

Regarding “1-(2-fluoro-5-trifluoromethyl-phenyl)-3-(4-{methyl-6-(2-oxopyrrolidin-2-yl)-1H-pyrazolo[3,4-d]pyrimidin-3-yl}-phenyl)-urea [Example 61]”, the “VEGFR2 PIC50 VEGFR-E2 assay” value on GST-VEGFR2 is on record as “++ (++ = PIC50 = 6.00 to less than 7.00)”. The “TIE2 PIC50 TIE2-E2 assay” value in experiment [1] is “+++ (+++ = PIC50 = 7.00 to less than 7.40)”. Moreover, in experiment [2], the “VEGFR3 PIC50 VEGFR-3-HTRF assay” value is on record as “+ (+ = PIC50 = 5.00 to less than 6.00)”.

Consider `Cn1nc(-c2ccc(NC(=O)Nc3cc(C(F)(F)F)cc(C(F)(F)F)c3)cc2)c2cnc(NCCN3CCOCC3)nc21` [Example 41, 1-(Bis-trifluoromethyl-phenyl)-3-{4-[1-methyl-6-(2-morpholin-4-yl-ethylamino)-1H-pyrazolo[3,4-d]pyrimidin-3-yl]-phenyl}-urea], for which the “VEGFR2 PIC50 VEGFR-E2 assay” value on GST-VEGFR2 is reported as “−− (−− = PIC50 less than 5.00)”. Moreover, the “TIE2 PIC50 TIE2-E2 assay” value in experiment [1] is reported as “++ (++ = PIC50 = 6.00 to less than 7.00)”.

Regarding `Cn1nc(-c2ccc(NC(=O)Nc3cccc(C(F)(F)F)c3)cc2)c2cnc(NCCN3CCOCC3)nc21` [Example 42, 1-{4-[1-Methyl-6-(2-morpholin-4-yl-ethylamino)-1H-pyrazolo[3,4-d]pyrimidin-3-yl]-phenyl}-3-(3-trifluoromethyl-phenyl)-urea], the IC50 in experiment [1] is at most 39.8 nM; in experiment [2], 1000 to 10000 nM.

As to `Cc1cc(-c2nn(C)c3nc(NCCN4CCOCC4)ncc23)ccc1NC(=O)Nc1ccc2ccccc2c1` [Example 46, 1-{2-Methyl-4-[1-methyl-6-(2-morpholin-4-yl-ethylamino)-1H -pyrazolo[3,4-d]pyrimidin-3-yl]-phenyl}-3-naphthalen-2-yl-urea], the IC50 at GST-VEGFR2 was over 10000 nM; in experiment [1], 100 to 1000 nM.

In the case of `Cn1nc(-c2ccc(NC(=O)Nc3cc(C(F)(F)F)cc(C(F)(F)F)c3)c(F)c2)c2cnc(NCCN3CCOCC3)nc21` [Example 53, 1-(3,5-Bis-trifluoromethyl-phenyl)-3-{2-fluoro-[methyl-(2-morpholin-4-yl-ethylamino)-1H-pyrazolo[3,4-d]pyrimidin-3-yl]-phenyl}-urea], the “VEGFR2 PIC50 VEGFR-E2 assay” value on GST-VEGFR2 is “+ (+ = PIC50 = 5.00 to less than 6.00)”. For the same molecule, the “TIE2 PIC50 TIE2-E2 assay” value in experiment [1] is “+++ (+++ = PIC50 = 7.00 to less than 7.40)”.

As for `Cn1nc(-c2ccc(NC(=O)Nc3ccc4ccccc4c3)c(F)c2)c2cnc(NCCN3CCOCC3)nc21` [Example 55], the figures for the IC50 (at GST-VEGFR2; in experiment [1]) were over 10000 nM and 100 to 1000 nM, respectively.

On to `CN(CCN1CCOCC1)c1ncnc2[nH]nc(-c3ccc(NC(=O)Nc4cc(C(F)(F)F)ccc4F)c(C(F)(F)F)c3)c12` [Example 56, 1-(2-Fluoro-5-trifluoromethyl-phenyl)-3-{[methyl-(2-morpholin-4-yl-ethylamino)-1H-pyrazolo[3,4-d]pyrimidin-3-yl]-(2-trifluoromethyl-phenyl)}-urea], for which, at GST-VEGFR2, the “VEGFR2 PIC50 VEGFR-E2 assay” value is recorded as “+ (+ = PIC50 = 5.00 to less than 6.00)”. Moreover, the “TIE2 PIC50 TIE2-E2 assay” value in experiment [1] is on record as “+ (+ = PIC50 = 5.00 to less than 6.00)”.

Take `CC(=O)Nc1ncc2c(-c3ccc(NC(=O)Nc4cc(C(F)(F)F)ccc4F)cc3)nn(C)c2n1` [Example 70]: the IC50 is 1000 to 10000 nM on GST-VEGFR2 and 100 to 1000 nM in experiment [1].

For `Cn1nc(-c2ccc(NC(=O)Nc3cc(C(F)(F)F)ccc3F)cc2)c2cnc(NC(CO)CO)nc21` [Example 83], the IC50 on GST-VEGFR2 is over 10000 nM; in experiment [1] it was 100 to 1000 nM.

Take `CN1CCN(CCCNc2ncc3c(-c4ccc(NS(=O)(=O)c5cccc(Cl)c5Cl)cc4)nn(C)c3n2)CC1` [Example 111, 2,3-Dichloro-N-(4-{1-methyl-6-[3-(4-methyl-piperazin-1-yl)-propylamino]-1H-pyrazolo[3,4-d]pyrimidin-3-yl]-phenyl}-benzenesulfonamide]: the IC50 is 1000 to 10000 nM in experiment [1] and over 10000 nM in experiment [2].

As for `CC(=O)NCCNc1ncc2c(-c3ccc(NS(=O)(=O)c4cccc(Cl)c4Cl)cc3)nn(C)c2n1` [Example 115, 2,3-Dichloro-N-{4-[1-methyl-6-(2-acetylamino-ethylamino)-1H-pyrazolo[3,4-d]pyrimidin-3-yl]-phenyl}-benzenesulfonamide], the results for the IC50 in experiment [1] and in experiment [2] were over 10000 nM and 1000 to 10000 nM, respectively.

In the case of `Cn1nc(-c2ccc(NS(=O)(=O)c3cccc(Cl)c3Cl)cc2)c2cnc(NCCCn3ccnc3)nc21` [Example 116, 2,3-Dichloro-N-{4-[1-methyl-6-(3-imidazol-1-yl-propylamino)-1H-pyrazolo[3,4-d]pyrimidin-3-yl]-phenyl}-benzenesulfonamide], the IC50 in experiment [1] and in experiment [2] was over 10000 nM each time.

For the molecule `Cn1cccc1CCNc1ncc2c(-c3ccc(NS(=O)(=O)c4cccc(Cl)c4Cl)cc3)nn(C)c2n1` [Example 117, 2,3-Dichloro-N-(4-{1-methyl-6-[2-(1-methyl-1H-pyrrol-2-yl)ethylamino]-1H-pyrazolo[3,4-d]pyrimidin-3-yl]-phenyl}-benzenesulfonamide], the IC50 in experiment [2] lay in the range of 1000 to 10000 nM.

As to `Cn1nc(-c2ccc(NS(=O)(=O)c3cccc(Cl)c3Cl)cc2)c2cnc(NCCCN)nc21` [Example 119, 2,3-Dichloro-N-{4-[1-methyl-6-(3-amino-propylamino)-1H-pyrazolo[3,4-d]pyrimidin-3-yl]-phenyl}-benzenesulfonamide], the IC50 was 1000 to 10000 nM in experiment [1] and over 10000 nM in experiment [2].

As for `Cn1nc(-c2ccc(NS(=O)(=O)c3cccc(Cl)c3Cl)cc2)c2cnc(NCCCCNC(=N)N)nc21` [Example 121, 2,3-Dichloro-N-{4-[1-methyl-6-(4-guanidino-butylamino)-1H-pyrazolo[3,4-d]pyrimidin-3-yl]-phenyl}-benzenesulfonamide], the IC50 in experiment [1] was 1000 to 10000 nM; in experiment [2] it was over 10000 nM.

With `Cn1nc(-c2ccc(NC(=O)Nc3cc(C(F)(F)F)ccc3F)cc2)c2cnc(NCCc3ccncc3)nc21` [Example 140, 1-(2-Fluoro-5-trifluoromethyl-phenyl)-3-{4-[(1-methyl-6-(2-pyridin-4-yl-ethylamino)-1H-pyrazolo[3,4-d]pyrimidin-3-yl]-phenyl]} urea], the values for the IC50 in experiment [1] and in experiment [2] were 39.8 to 100 nM and 100 to 1000 nM, respectively.

As to `Cn1nc(-c2ccc(NC(=O)Nc3cc(C(F)(F)F)ccc3F)cc2)c2cnc(NCCc3cccnc3)nc21` [Example 141], the IC50 in experiment [1] was 100 to 1000 nM; in experiment [2], over 10000 nM.

In the case of `CCNc1ncc2c(-c3ccc(NC(=O)Nc4ccc(C(F)(F)F)cc4F)cc3)nn(C)c2n1` [Example 162], in experiment [1], the IC50 is 1000 to 10000 nM.

Source of the values: US7217710B2, “Substituted pyrazolopyrimidines” (SmithKline Beecham Corporation, priority 2001, dated 2007).
